From patent US7282593B2, “Withanamide and withanolide compositions and method of use thereof” (Board of Trustees of Michigan State University, priority 2003, dated 2007)

Each compound was assayed on lipid peroxidation in large unilamellar vesicles (LUVs) (assay: Inhibition of lipid peroxidation in large unilamellar vesicles (liposome) model system). Details: at 0.5 μg/mL; vs DMSO control at 21 min.
Protocol: Fluorescence intensity was monitored for 21 minutes at intervals of 3 minutes. The percentage of inhibition represented was calculated with respect to DMSO control at 21 min. The concentrations of compounds tested were 1-3, 5 and 9 at 1 μg/mL; 4, 6-8 at 0.5 μg/mL; 15 at 100 μg/mL; 16 at 50 μg/mL; 17 at 10 μg/mL. Commercial antioxidants BHA, BHT and TBHQ were tested at 1 μg/mL. Data represented indicates the mean ± one standard deviation (n=2).
Compounds tested were 10 and 13 at 100 μg/mL; 12 and 11 were at 10 and 50 μg/mL, respectively. Data represented indicates the mean ± one standard deviation (n=2).
The liposome suspension was prepared by mixing the phospholipid 1-stearoyl-2-linoleoyl-sn-glycero-3-phosphocoline (SLPC) and a fluorescence probe [3-[p-(6-phenyl)-1,3,5-hexatrienylph-enylpropionic acid (DPH-PA). The final assay volume was 2 mL and consisted HEPES (100 μL), 1M NaCl (200 μL), N2-sparged water (1.64 ml), test sample or DMSO (20 μL) and liposome suspension (20 μL). The peroxidation was initiated by the addition of 20 μl of FeCl2. […] The fluorescence was monitored at 0, 1, 3 and every 3 min up to 21 min using a Turner Model 450 Digital fluorometer. The decrease in fluorescence intensity over the time (21 min) indicated the rate of peroxidation. The percentage of lipid peroxidation was calculated with respect to DMSO solvent control. Stock solutions of the samples were prepared at 100 μg/ml and diluted further for the assay.
In the case of Withanamide G [Compound 7], the “inhibition of lipid peroxidation” value is reported as 82%. Withanamide F [Compound 6] was tested, and the “inhibition of lipid peroxidation” value was 85%. For Withanamide H [Compound 8], the “inhibition of lipid peroxidation” value was 90%.

Same assay, conditions: at 1 μg/mL; vs DMSO control at 21 min
For Cc1cc(C(C)(C)C)c(O)c(C(C)(C)C)c1 [BHT, butylated hydroxytoluene, reference compound], the “inhibition of lipid peroxidation” value was 81%. Withanamide E [Compound 5] was tested, and the “inhibition of lipid peroxidation” value was 81%. With Withanamide A [Compound 1] the “inhibition of lipid peroxidation” value was 98%. With Withanamide D [Compound 4] the “inhibition of lipid peroxidation” value was 94%. In the case of CC(C)(C)c1cc(O)ccc1O [TBHQ, tert-butylhydroquinone, reference compound], the “inhibition of lipid peroxidation” value is reported as 85%. For COc1ccc(O)c(C(C)(C)C)c1 [BHA, butylated hydroxyanisole, reference compound], the “inhibition of lipid peroxidation” value was 80%. Withanamide B [Compound 2] was tested, and the “inhibition of lipid peroxidation” value was 93%. In the case of Withanamide C [Compound 3], the “inhibition of lipid peroxidation” value is reported as 79%. For Withanamide I [Compound 9], the “inhibition of lipid peroxidation” value was 86%.

Same assay, conditions: at 10 μg/mL; vs DMSO control at 21 min
CC1=C(C)C(=O)O[C@@H]([C@@H](C)[C@H]2CC[C@H]3[C@@H]4CC=C5C[C@@H](O[C@@H]6O[C@H](CO[C@@H]7O[C@H](CO)[C@@H](O)[C@H](O)[C@H]7O)[C@@H](O)[C@H](O)[C@H]6O)C[C@H](O)[C@]5(C)[C@H]4CC[C@]23C)C1 [Compound 12, Withanoside V] was tested, and the “inhibition of lipid peroxidation” value was 82%. For Cl.NCCc1c[nH]c2ccc(O)cc12 [Compound 16, serotonine, reference compound], the “inhibition of lipid peroxidation” value was 44%.

Same assay, conditions: at 50 μg/mL; vs DMSO control at 21 min
COc1ccc2[nH]cc(CCN)c2c1 [Compound 15, 5-methoxyserotonine, reference compound] was tested, and the “inhibition of lipid peroxidation” value was 30%. With CC1=C(C)C(=O)O[C@@H]([C@](C)(O)[C@H]2CC[C@H]3[C@@H]4CC=C5C[C@@H](O[C@@H]6O[C@H](CO[C@@H]7O[C@H](CO)[C@@H](O)[C@H](O)[C@H]7O)[C@@H](O)[C@H](O)[C@H]6O)C[C@H](O)[C@]5(C)[C@H]4CC[C@]23C)C1 [Compound 11, withanoside VI] the “inhibition of lipid peroxidation” value was 86%.

Same assay, conditions: at 100 μg/mL; vs DMSO control at 21 min
With NCCc1c[nH]c2ccccc12 [Compound 14, tryptamine, reference compound] the “inhibition of lipid peroxidation” value was 40%. With CC1CC([C@](C)(O)C2CCC3C4CC=C5C[C@@H](OC6OC(COC7OC(CO)C(O)C(O)C7O)C(O)C(O)C6O)C[C@H](O)C5(C)C4CCC32C)OC(=O)C1C (stereo partly drawn) [Compound 10, 23,24-Dihydrowithanolide VI] the “inhibition of lipid peroxidation” value was 84%. With CC1=C(CO)C(=O)O[C@@H]([C@@H](C)[C@H]2CC[C@H]3[C@@H]4CC=C5C[C@@H](O[C@@H]6O[C@H](CO[C@@H]7O[C@H](CO)[C@@H](O)[C@H](O)[C@H]7O)[C@@H](O)[C@H](O)[C@H]6O)C[C@H](O)[C@]5(C)[C@H]4CC[C@]23C)C1 [Compound 13, withanoside IV] the “inhibition of lipid peroxidation” value was 25%.

Same assay, conditions: at 10 ppm
CC1=C(C)C(=O)O[C@@H]([C@@H](C)[C@H]2CC[C@H]3[C@@H]4CC=C5C[C@@H](O[C@@H]6O[C@H](CO[C@@H]7O[C@H](CO)[C@@H](O)[C@H](O)[C@H]7O)[C@@H](O)[C@H](O)[C@H]6O)C[C@H](O)[C@]5(C)[C@H]4CC[C@]23C)C1 [Compound 12, Withanoside V] was tested, and the “inhibition of lipid peroxidation” value was 82.5%.

Same assay, conditions: at 50 ppm
CC1=C(C)C(=O)O[C@@H]([C@](C)(O)[C@H]2CC[C@H]3[C@@H]4CC=C5C[C@@H](O[C@@H]6O[C@H](CO[C@@H]7O[C@H](CO)[C@@H](O)[C@H](O)[C@H]7O)[C@@H](O)[C@H](O)[C@H]6O)C[C@H](O)[C@]5(C)[C@H]4CC[C@]23C)C1 [Compound 11, withanoside VI] was tested, and the “lipid peroxidation inhibitory activity” value was 86%.
